Assay results published in US20030157708A1, “Cell stimulation apparatus and a cell stimulation method” (priority 2001, published 2003).

Assays:
Format in all cases: cell-based, mice
cultured granule cells = assay: Release of NRG into conditioned media, read by CREB-phosphorylation of granule cells; conditions: living cultured granule cells
Description: In D, using cerebellar granule cells, CREB-phosphorylation was checked after the conditioned medium stimulation. Serum-starved cerebellar granule cells were treated (for 5 to 10 minutes) with conditioned media collected from pontine nuclus neuron and granule cell cultures. The conditioned media from pontine nuclei neurons was used for stimulation in a, b and c. In d, e and f, conditioned media were prepared from granule cell culture.
To detect CREB phosphorylation, 7DIV cultured granule cells were fixed with 4% paraformaldehyde for 10 minutes after conditioned media stimulation for 10 to 15 minutes, and stained with a polyclonal anti-NRG β1 antibody, a polyclonal anti-PCREB antibody (BioLabs). […] Alexa™ dyes (Molecular probe) were used as a secondary antibody.
The soluble forms released by PMA stimulation (60 minutes) were enriched using a spin column and added into the cultured granule cells. The stimulated granule cells were stained with anti-phospho-CREB antibody after fixation. The conditioned media from the pontine nuclei neurons was used for stimulation (a, b and c) and that from granule cell cultures for stimulation (d, e and f). […] The conditioned media (c and f) should have contained cleaved endogenous and recombinant NRG The subtraction of b from c and e from f indicated CREB-phosphorylation induced by sNRG that was from recombinant mNRG. […]

ErbB4 = ErbB4 tyrosine-phosphorylation activity of conditioned media (immunoprecipitation / anti-phosphotyrosine blot); conditions: PMA stimulation for 60 minutes
Description: In B, pontine nuclei neurons and granule cells with and without transfection of the transmembrane form of NRG were prepared and stimulated by PMA for 60 minutes and then the conditioned media were collected. Tyrosin-phosphorylation activity of the conditioned media was examined using cerebellar granule cells. The granule cell cultures were stimulated for 5 to 10 minutes with the conditioned media that were collected and concentrated. Lysates from granule cells were resolved by SDS-PAGE, and the blot was probed with an anti-phosphotyrosine antibody (4G10) after immunoprecipitation with anti-ErbB4 antibody. Tyrosine-phosphorylated bands of 180 kD were observed by stimulation (B). The conditioned media were collected from PN(non-transfected pontine neuclei neurons), tPN(transfected pontine neuclei neurons), GC(non-transfected granule cells), and tGC(transfected-granule cells). The result is summarized in C. The experiments were repeated independently three or four times.
After electrical stimulation (1 mA, 30˜60V outside the cells) for 30 minutes on […] cells which were transfected with recombinant full length mNRG, the conditioned media obtained from the cells were collected and concentrated using centricon 10 and 100 (Millipore) to cut off large (>100 kd) and small (<10 kd) molecular weight proteins. […]

[1] = system: GABAA receptor β2 subunit; conditions: 7DIV granule cells, FIG. 10C; MK801 25 μM, CNQX 10 μM
[2] = system: NMDA receptor NR2C subunit; conditions: 7DIV granule cells, MK801 25 μM

SMILES: [Cl-].[K+] [KC1]
- release of NRG by stimulation (cultured granule cells): could not be observed

SMILES: CCCCCCCCCCCCCC(=O)O[C@@H]1[C@@H](C)[C@@]2(O)[C@@H](C=C(CO)C[C@]3(O)C(=O)C(C)=C[C@@H]23)[C@@H]2C(C)(C)[C@]12OC(C)=O [PMA, phorbol-12-myristate-13-acetate]
- Tyrosine-phosphorylated bands of 180 kD with conditioned media from mNRG-transfected neurons (ErbB4): clearly observed

SMILES: N#Cc1cc2[nH]c(=O)c(=O)[nH]c2cc1[N+](=O)[O-] [CNQX]
- β2 transcription at 1.0 and 100 Hz stimulation, block [1]: blocked

SMILES: C[C@]12N[C@H](Cc3ccccc31)c1ccccc12 [MK801]
- NR2C mRNA increase at 100 Hz (high frequency) stimulation, block ([2]; 30 minutes stimulation, TTX 1 μM, Cd 100 μM, EGTA 1 mM): strongly blocked
- NR2C elevated transcription at 1 and 100 Hz, block ([2]; FIG. 10C): strongly blocked
- β2 transcription at 1.0 and 100 Hz stimulation, block [1]: blocked
